# Measured values: the NIST ThermoML archive (doi:10.1021/je0201976)
# Values joined by “and” are separate entries in the source; they are usually repeats but may differ in a detail not shown here. Equal entries are not always repeated. ± gives the expanded uncertainty stated by the source.
# Settings: Liquid
# [1] = Visual observation in an unstirred cell
structure (smiles),measurement,setting,value
FC(C(F)(F)F)C(F)(F)OCC(F)(F)C(F)(F)F (stereo not given),vapor or sublimation pressure,312.48 K,14.7 ± 1 kPa
same,vapor or sublimation pressure,342.64 K,54.8 ± 1 kPa
same,vapor or sublimation pressure,352.72 K,79.1 ± 1 kPa
same,vapor or sublimation pressure,362.78 K,113.1 ± 1.1 kPa
same,vapor or sublimation pressure,372.77 K,157 ± 1.1 kPa
same,vapor or sublimation pressure,382.71 K,211.7 ± 1.2 kPa
same,vapor or sublimation pressure,402.89 K,360.6 ± 1.4 kPa
same,vapor or sublimation pressure,412.9 K,460.7 ± 1.7 kPa
same,vapor or sublimation pressure,422.79 K,575.4 ± 1.9 kPa
same,vapor or sublimation pressure,432.96 K,717.1 ± 2.3 kPa
same,vapor or sublimation pressure,443 K,881.9 ± 2.8 kPa
same,vapor or sublimation pressure,453 K,1067.4 ± 3.3 kPa
same,vapor or sublimation pressure,461.47 K,1255.3 ± 3.9 kPa
same,vapor or sublimation pressure,473.07 K,1548.7 ± 4.8 kPa
same,vapor or sublimation pressure,483.09 K,1842.8 ± 5.7 kPa
same,vapor or sublimation pressure,486.67 K,1954.3 ± 6.1 kPa
same,Critical density,,567 ± 2 kg/m3
same,Critical pressure,Direct measurement,1950 ± 7 kPa
same,Critical temperature,[1],486.48 ± 0.07 K
"COCC(F)(F)C(F)(F)C(F)(F)F [1,1,1,2,2,3,3-heptafluoro-4-methoxybutane]",vapor or sublimation pressure,291.65 K,12.1 ± 1 kPa
same,vapor or sublimation pressure,302.31 K,20.4 ± 1 kPa
same,vapor or sublimation pressure,312.43 K,32.3 ± 1 kPa
same,vapor or sublimation pressure,322.64 K,48.9 ± 1 kPa
same,vapor or sublimation pressure,332.66 K,71.5 ± 1 kPa
same,vapor or sublimation pressure,337.71 K,85.4 ± 1 kPa
same,vapor or sublimation pressure,342.7 K,101.2 ± 1 kPa
same,vapor or sublimation pressure,347.73 K,119.2 ± 1.1 kPa
same,vapor or sublimation pressure,362.74 K,189.2 ± 1.2 kPa
same,vapor or sublimation pressure,372.75 K,250.2 ± 1.3 kPa
same,vapor or sublimation pressure,382.82 K,326.6 ± 1.4 kPa
same,vapor or sublimation pressure,392.85 K,419.6 ± 1.6 kPa
same,vapor or sublimation pressure,402.88 K,531.3 ± 1.9 kPa
same,vapor or sublimation pressure,412.9 K,664.3 ± 2.2 kPa
same,vapor or sublimation pressure,422.92 K,820.3 ± 2.6 kPa
same,vapor or sublimation pressure,432.95 K,1004.6 ± 3.2 kPa
same,vapor or sublimation pressure,442.98 K,1216.4 ± 3.9 kPa
same,vapor or sublimation pressure,453 K,1462.9 ± 4.7 kPa
same,vapor or sublimation pressure,463.01 K,1746.1 ± 5.6 kPa
same,vapor or sublimation pressure,473.05 K,2071.1 ± 6.7 kPa
same,vapor or sublimation pressure,478.44 K,2266.3 ± 7.3 kPa
same,vapor or sublimation pressure,481.5 K,2382.5 ± 7.6 kPa
same,vapor or sublimation pressure,481.66 K,2389.1 ± 7.7 kPa
same,Critical density,,497 ± 2 kg/m3
same,Critical pressure,Direct measurement,2381 ± 9 kPa
same,Critical temperature,[1],481.54 ± 0.17 K
"FC(F)C(F)(F)OCC(F)(F)C(F)(F)F [1,1,1,2,2-pentafluoro-3-(1,1,2,2-tetrafluoroethoxy)propane]",vapor or sublimation pressure,299.64 K,17.7 ± 1 kPa
same,vapor or sublimation pressure,332.69 K,69.8 ± 1 kPa
same,vapor or sublimation pressure,337.7 K,84 ± 1 kPa
same,vapor or sublimation pressure,342.7 K,100.3 ± 1 kPa
same,vapor or sublimation pressure,347.73 K,119.2 ± 1.1 kPa
same,vapor or sublimation pressure,352.74 K,140.6 ± 1.1 kPa
same,vapor or sublimation pressure,362.76 K,192.2 ± 1.1 kPa
same,vapor or sublimation pressure,372.78 K,256.8 ± 1.2 kPa
same,vapor or sublimation pressure,382.81 K,337.6 ± 1.4 kPa
same,vapor or sublimation pressure,392.84 K,436.3 ± 1.6 kPa
same,vapor or sublimation pressure,402.86 K,555.1 ± 1.9 kPa
same,vapor or sublimation pressure,412.89 K,700 ± 2.2 kPa
same,vapor or sublimation pressure,422.91 K,868.6 ± 2.7 kPa
same,vapor or sublimation pressure,432.95 K,1066.1 ± 3.3 kPa
same,vapor or sublimation pressure,442.97 K,1298 ± 4.1 kPa
same,vapor or sublimation pressure,447.99 K,1427.4 ± 4.5 kPa
same,vapor or sublimation pressure,453 K,1567.3 ± 4.9 kPa
same,vapor or sublimation pressure,458.02 K,1718.4 ± 5.4 kPa
same,vapor or sublimation pressure,464.03 K,1914.1 ± 6 kPa
same,vapor or sublimation pressure,468.05 K,2055.2 ± 6.4 kPa
same,vapor or sublimation pressure,473.08 K,2246.6 ± 7 kPa
same,Critical density,,550 ± 2 kg/m3
same,Critical pressure,Direct measurement,2244 ± 5 kPa
same,Critical temperature,[1],473.01 ± 0.1 K
"FC(C(F)(F)F)C(F)(F)OCC(F)(F)F (stereo not given) [1,1,1,2,3,3-hexafluoro-3-(2,2,2-trifluoroethoxy)propane]",vapor or sublimation pressure,302.76 K,18.7 ± 1 kPa
same,vapor or sublimation pressure,312.63 K,29.6 ± 1 kPa
same,vapor or sublimation pressure,322.65 K,44.6 ± 1 kPa
same,vapor or sublimation pressure,332.64 K,65.7 ± 1 kPa
same,vapor or sublimation pressure,342.72 K,93.9 ± 1 kPa
same,vapor or sublimation pressure,352.73 K,131 ± 1.1 kPa
same,vapor or sublimation pressure,362.77 K,179.1 ± 1.1 kPa
same,vapor or sublimation pressure,372.79 K,239.7 ± 1.2 kPa
same,vapor or sublimation pressure,382.83 K,315.9 ± 1.4 kPa
same,vapor or sublimation pressure,392.84 K,408 ± 1.5 kPa
same,vapor or sublimation pressure,402.89 K,521.2 ± 1.8 kPa
same,vapor or sublimation pressure,412.92 K,657.3 ± 2.1 kPa
same,vapor or sublimation pressure,422.94 K,814.3 ± 2.6 kPa
same,vapor or sublimation pressure,432.97 K,1004.4 ± 3.1 kPa
same,vapor or sublimation pressure,443 K,1225.6 ± 3.8 kPa
same,vapor or sublimation pressure,453.02 K,1480.3 ± 4.6 kPa
same,vapor or sublimation pressure,463.04 K,1778.5 ± 5.5 kPa
same,vapor or sublimation pressure,473.06 K,2125 ± 6.6 kPa
same,vapor or sublimation pressure,475.79 K,2236.1 ± 7 kPa
same,Critical density,,563 ± 2 kg/m3
same,Critical pressure,Direct measurement,2233 ± 11 kPa
same,Critical temperature,[1],475.74 ± 0.09 K
"FC(F)C(F)(F)COC(F)(F)C(F)C(F)(F)F (stereo not given) [1,1,1,2,3,3-hexafluoro-3-(2,2,3,3-tetrafluoropropoxy)propane]",vapor or sublimation pressure,285.28 K,6.2 ± 1.1 kPa
same,vapor or sublimation pressure,302.65 K,12.5 ± 1.3 kPa
same,vapor or sublimation pressure,312.63 K,19.8 ± 1.5 kPa
same,vapor or sublimation pressure,322.62 K,30.9 ± 1.9 kPa
same,vapor or sublimation pressure,332.69 K,45.8 ± 2.5 kPa
same,vapor or sublimation pressure,342.69 K,62.9 ± 3.4 kPa
same,vapor or sublimation pressure,352.75 K,88.5 ± 4.6 kPa
same,vapor or sublimation pressure,362.72 K,129.9 ± 6.7 kPa
same,vapor or sublimation pressure,372.8 K,175.3 ± 8.9 kPa
same,vapor or sublimation pressure,382.83 K,229 ± 12 kPa
same,vapor or sublimation pressure,392.86 K,294.8 ± 15 kPa
same,vapor or sublimation pressure,402.89 K,374.7 ± 19 kPa
same,vapor or sublimation pressure,412.92 K,469.1 ± 24 kPa
same,vapor or sublimation pressure,422.94 K,581.8 ± 29 kPa
same,vapor or sublimation pressure,432.97 K,715.5 ± 36 kPa
same,vapor or sublimation pressure,443 K,870.9 ± 43 kPa
same,vapor or sublimation pressure,453.03 K,1049.5 ± 52 kPa
same,vapor or sublimation pressure,463.06 K,1252.9 ± 62 kPa
same,vapor or sublimation pressure,473.08 K,1484.4 ± 74 kPa
same,vapor or sublimation pressure,481.14 K,1745.4 ± 87 kPa
same,vapor or sublimation pressure,490.97 K,2048 ± 100 kPa
same,vapor or sublimation pressure,499.97 K,2137.8 ± 400 kPa
same,vapor or sublimation pressure,500.79 K,2176.3 ± 400 kPa
same,Critical pressure,,2172 ± 82 kPa
same,Critical temperature,,516.21 ± 0.31 K
"FCC(F)(F)F [1,1,1,2-tetrafluoroethane]",Critical density,,508 ± 2 kg/m3
same,Critical pressure,Direct measurement,4051 ± 5 kPa
same,Critical temperature,[1],374.13 ± 0.07 K
"FC(F)(F)COCC(F)(F)F [1,1,1-trifluoro-2-(2,2,2-trifluoroethoxy)ethane]",vapor or sublimation pressure,293.4 K,18 ± 1 kPa
same,vapor or sublimation pressure,293.59 K,18.2 ± 1 kPa
same,vapor or sublimation pressure,303.09 K,27.9 ± 1 kPa
same,vapor or sublimation pressure,303.12 K,28 ± 1 kPa
same,vapor or sublimation pressure,313.12 K,42.6 ± 1 kPa
same,vapor or sublimation pressure,313.14 K,42.8 ± 1 kPa
same,vapor or sublimation pressure,323.15 K,63.3 ± 1 kPa
same,vapor or sublimation pressure,323.17 K,63.4 ± 1 kPa
same,vapor or sublimation pressure,333.2 K,91.3 ± 1 kPa and 91.4 ± 1 kPa
same,vapor or sublimation pressure,338.22 K,109 ± 1.1 kPa
same,vapor or sublimation pressure,343.24 K,129.2 ± 1.1 kPa
same,vapor or sublimation pressure,353.27 K,178.3 ± 1.1 kPa
same,vapor or sublimation pressure,353.28 K,178.3 ± 1.1 kPa
same,vapor or sublimation pressure,363.31 K,241.1 ± 1.2 kPa
same,vapor or sublimation pressure,373.34 K,320 ± 1.4 kPa
same,vapor or sublimation pressure,373.35 K,320.1 ± 1.4 kPa
same,vapor or sublimation pressure,383.38 K,417.4 ± 1.6 kPa and 417.3 ± 1.6 kPa
same,vapor or sublimation pressure,393.43 K,536.2 ± 1.8 kPa and 536.3 ± 1.8 kPa
same,Critical density,,500 ± 2 kg/m3
same,Critical pressure,Direct measurement,2783 ± 5 kPa
same,Critical temperature,[1],476.31 ± 0.09 K
"FC(F)OCC(F)(F)F [1,1,1-trifluoro-2-(difluoromethoxy)ethane]",vapor or sublimation pressure,294.35 K,72.3 ± 1 kPa
same,vapor or sublimation pressure,298.14 K,84.3 ± 1 kPa
same,vapor or sublimation pressure,300.2 K,91.5 ± 1 kPa
same,vapor or sublimation pressure,303.14 K,102.8 ± 1 kPa
same,vapor or sublimation pressure,313.12 K,148.1 ± 1.1 kPa
same,vapor or sublimation pressure,323.16 K,207.8 ± 1.2 kPa
same,vapor or sublimation pressure,333.19 K,284.6 ± 1.3 kPa
same,vapor or sublimation pressure,343.23 K,381.2 ± 1.5 kPa
same,vapor or sublimation pressure,353.26 K,500.9 ± 1.8 kPa
same,vapor or sublimation pressure,363.3 K,646.8 ± 2.1 kPa
same,vapor or sublimation pressure,373.34 K,823 ± 2.6 kPa
same,vapor or sublimation pressure,383.37 K,1031.9 ± 3.2 kPa
same,vapor or sublimation pressure,393.42 K,1282.6 ± 4 kPa
same,vapor or sublimation pressure,403.45 K,1575.8 ± 4.9 kPa
same,vapor or sublimation pressure,413.47 K,1919.5 ± 6 kPa
same,vapor or sublimation pressure,423.52 K,2334.2 ± 7.3 kPa
same,vapor or sublimation pressure,433.56 K,2798.5 ± 8.7 kPa
same,vapor or sublimation pressure,443.56 K,3339.2 ± 10 kPa
same,Critical pressure,,3457 ± 19 kPa
same,Critical temperature,,444.88 ± 0.31 K
